According to ChEMBL document CHEMBL1201862, “PubChem BioAssay data set” (2004):
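1) Cells in 96-well plates. 2) Compound, 48 h, 5 concentrations. 3) Linear interpolation between surrounding doses. 4) Unreached endpoint = highest concentration. GI50 is the concentration that inhibits growth by half.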 Activity calls are given as the source filed them. No stated cut-off is given here; in the data, active = GI50 up to about 1.1 µM and inactive = higher.

What was measured:
Assay in all cases: DTP human tumour cell line panel, 48 h
M14 = test system: M14
NCI-H522 = test system: NCI-H522
NCI/ADR-RES = test system: NCI/ADR-RES
HOP-92 = test system: HOP-92
MDA-MB-435 = test system: MDA-MB-435
OVCAR-8 = test system: OVCAR-8
CCRF-CEM = test system: CCRF-CEM
IGROV-1 = test system: IGROV-1
Malme-3M = test system: Malme-3M
U-251 = test system: U-251
UO-31 = test system: UO-31
OVCAR-3 = test system: OVCAR-3
LOX IMVI = test system: LOX IMVI
SNB-75 = test system: SNB-75
K562 = test system: K562
A498 = test system: A498
A549 = test system: A549
UACC-257 = test system: UACC-257
786-0 = test system: 786-0
NCI-H226 = test system: NCI-H226

Row | Structure (SMILES) | GI50 (M14) | GI50 (NCI-H522) | GI50 (NCI/ADR-RES) | GI50 (HOP-92) | GI50 (MDA-MB-435) | GI50 (OVCAR-8) | GI50 (CCRF-CEM) | GI50 (IGROV-1) | GI50 (Malme-3M) | GI50 (U-251) | GI50 (UO-31) | GI50 (OVCAR-3) | GI50 (LOX IMVI) | GI50 (SNB-75) | GI50 (K562) | GI50 (A498) | GI50 (A549) | GI50 (UACC-257) | GI50 (786-0) | GI50 (NCI-H226)
1 | CN(C)c1ccc(/C=c2\c3cc([N+](=O)[O-])ccc3n3c2cc(-c2ccccc2)[n+]3C)cc1 | 1 µM (active) | 0.497 µM (active) | 39.8 µM (inactive) | 1.18 µM (inactive) | 0.531 µM (active) | 1.45 µM (inactive) | 0.601 µM (active) | 0.964 µM (active) | 0.55 µM (active) | 0.327 µM (active) | 7.41 µM (inactive) | 1.46 µM (inactive) | 1.57 µM (inactive) | 1.07 µM (active) | 0.265 µM (active) | 2.28 µM (inactive) | 2.94 µM (inactive) | 0.918 µM (active) | 3.31 µM (inactive) | 2.75 µM (inactive)
2 | c1ccc(NCCSc2nc3ccccc3s2)cc1 | 44.7 µM (inactive) | 37.2 µM (inactive) | 35.9 µM (inactive) | 41.1 µM (inactive) | 43.3 µM (inactive) | 79.1 µM (inactive) | 14.8 µM (inactive) | > 100 µM (inactive) | 44.9 µM (inactive) | 52.8 µM (inactive) | 35 µM (inactive) | 88.3 µM (inactive) | 45.5 µM (inactive) | > 100 µM (inactive) | 34 µM (inactive) | 26.5 µM (inactive) | 37.7 µM (inactive) | 22.1 µM (inactive) | 37.6 µM (inactive) | 
3 | CN(C(=O)Cc1cccc(N=C=S)c1)[C@H]1CCCC[C@@H]1N1CCCC1 | 17.8 µM (inactive) | 12.9 µM (inactive) | 24.8 µM (inactive) | 13.8 µM (inactive) | 13.9 µM (inactive) | 16.2 µM (inactive) | 12.5 µM (inactive) | 13.9 µM (inactive) | 22.4 µM (inactive) | 17.1 µM (inactive) | 14.7 µM (inactive) | 14.1 µM (inactive) | 14.5 µM (inactive) | 14.1 µM (inactive) | 7.59 µM (inactive) | 17.2 µM (inactive) | 16.4 µM (inactive) | 13.5 µM (inactive) | 15.1 µM (inactive) | 
4 | CC(=O)OCC1OC(N2C(c3ccccc3)=CC(c3ccccc3)C(C#N)=C2S)C(OC(C)=O)C(OC(C)=O)C1OC(C)=O (stereo not drawn) | 12.6 µM (inactive) | 7.89 µM (inactive) | 14.3 µM (inactive) | 3.81 µM (inactive) | 4.92 µM (inactive) | 3.88 µM (inactive) | > 61.2 µM (inactive) | 18.2 µM (inactive) | 5.43 µM (inactive) | 3.57 µM (inactive) | 19.2 µM (inactive) | 16.9 µM (inactive) | 4.49 µM (inactive) | 10.4 µM (inactive) | 3.76 µM (inactive) | 20.2 µM (inactive) | 7.62 µM (inactive) | 3.63 µM (inactive) | 2.33 µM (inactive) | 12.7 µM (inactive)
5 | Brc1ccccc1/C=N\C12CC3CC(CC(C3)C1)C2 | 28.1 µM (inactive) | > 100 µM (inactive) | > 100 µM (inactive) | 84.7 µM (inactive) | 8.47 µM (inactive) | > 100 µM (inactive) | 4.54 µM (inactive) | > 100 µM (inactive) | > 67.9 µM (inactive) | 12.9 µM (inactive) | > 100 µM (inactive) | 23.8 µM (inactive) | 19.9 µM (inactive) | 38.2 µM (inactive) | 1.02 µM (active) | > 100 µM (inactive) | > 100 µM (inactive) | > 79.4 µM (inactive) | > 52.8 µM (inactive) | > 100 µM (inactive)
6 | O=[N+]([O-])C(=C/c1cccs1)/C(=C\c1cccs1)[N+](=O)[O-] | 1.04 µM (active) | 0.327 µM (active) | 0.54 µM (active) | 0.802 µM (active) | 0.441 µM (active) | 0.342 µM (active) | 0.0263 µM (active) | 0.774 µM (active) | 1.03 µM (active) | 0.397 µM (active) | 1.2 µM (inactive) | 1.85 µM (inactive) | 0.209 µM (active) | 9.46 µM (inactive) | 0.272 µM (active) | 1.64 µM (inactive) | 2.27 µM (inactive) | 1.29 µM (inactive) | 0.298 µM (active) | 2.77 µM (inactive)
7 | O=C1/C(=C\Oc2ccc(F)cc2)N2CCC1CC2 | > 100 µM (inactive) | 50.8 µM (inactive) | 46.2 µM (inactive) | 41.4 µM (inactive) | 40.5 µM (inactive) | 85.1 µM (inactive) | 34.4 µM (inactive) | 88.3 µM (inactive) | 33.3 µM (inactive) | 77.1 µM (inactive) | 45.1 µM (inactive) | > 100 µM (inactive) | 25.7 µM (inactive) | 24.8 µM (inactive) | 32.7 µM (inactive) | > 100 µM (inactive) | > 100 µM (inactive) | 23.7 µM (inactive) | > 100 µM (inactive) | 35.5 µM (inactive)
